In patent EP0908457B1, “3-(1,2-benzisothiazol- and isoxazol-5-Y1)-2,4(1H,3H)-pyrimidinedione or thione and 3-(1,2-benzisothiazol- and isoxazol-5-y1)-4(3H)-pyrimidinone or thione herbicidal agents” (BASF AKTIENGESELLSCHAFT, priority 1997, dated 1999):

Experiments:
[1] = system: Cyperus iria; assay: Postemergence weed control under flooded paddy conditions, CYPIR (Rice Flatsedge); format: in vivo; conditions: rated three to four weeks after treatment
[2] = system: Cyperus serotinus, Rottb.; assay: Preemergence weed control under flooded paddy conditions, CYPSE (Flatsedge); format: in vivo; conditions: preemergence weeds, herbicidal effect rating 0-9, three to four weeks after treatment
[3] = system: Echinochloa oryzoides (Ard.) Fritsch.; assay: Preemergence weed control under flooded paddy conditions, ECHORC (Watergrass (Calif.)); format: in vivo; conditions: preemergence weeds, flooded paddy, herbicidal effect rating 0-9, three to four weeks after treatment
[4] = system: Sagittaria pygmaea, L.; assay: Preemergence weed control under flooded paddy conditions, SAGPY (Arrowhead (Pygmaea)); format: in vivo; conditions: preemergence weeds, flooded paddy, herbicidal effect rating 0-9, three to four weeks after treatment
[5] = system: Cyperus iria; assay: Preemergence weed control under flooded paddy conditions, CYPIR (Rice Flatsedge); format: in vivo; conditions: preemergence weeds, flooded paddy, herbicidal effect rating 0-9, three to four weeks after treatment
[6] = system: Sagittaria pygmaea, L.; assay: Postemergence weed control under flooded paddy conditions, SAGPY (Arrowhead (Pygmaea)); format: in vivo; conditions: rated three to four weeks after treatment
[7] = system: Monochoria vaginalis, Presl.; assay: Postemergence weed control under flooded paddy conditions, MOOVA (Monochoria); format: in vivo; conditions: rated three to four weeks after treatment
[8] = system: Echinochloa oryzoides (Ard.) Fritsch.; assay: Postemergence weed control under flooded paddy conditions, ECHORC (Watergrass (Calif.)); format: in vivo; conditions: rated three to four weeks after treatment
[9] = system: Cyperus serotinus, Rottb.; assay: Postemergence weed control under flooded paddy conditions, CYPSE (Flatsedge); format: in vivo; conditions: rated three to four weeks after treatment
[10] = system: Oryza sativa, (L.) Tebonnet; assay: Rice tolerance to post-transplant applications under flooded paddy conditions (Example 188), ORYSAT (Rice, Tebonnet); conditions: rated three to four weeks after treatment
[11] = system: Oryza sativa, (L.) Tebonnet; assay: Rice tolerance to post-transplant applications under flooded paddy conditions (Example 187), ORYSAT (Rice, Tebonnet); conditions: herbicidal effect rating 0-9, three to four weeks after treatment
[12] = system: Monochoria vaginalis, Presl.; assay: Preemergence weed control under flooded paddy conditions, MOOVA (Monochoria); format: in vivo; conditions: preemergence weeds, flooded paddy, herbicidal effect rating 0-9, three to four weeks after treatment

CCCCC(=O)c1nsc2ccc(-n3c(=O)cc(C(F)(F)F)n(C)c3=O)cc12 [Example 431, 2,4(1H,3H)-Pyrimidinedione, 1-methyl-6-(trifluoromethyl)-3-(3-valeryl-1,2-benzisothiazol-5-yl)-]
9.0: herbicidal effect rating, CYPIR ([1]; Rate 0.1250 kg/ha) | herbicidal effect rating, CYPIR ([1]; Rate 0.2500 kg/ha) | CYPSE ([2]; 0.2500 kg/ha) | ECHORC ([3]; 0.0620 kg/ha) | ECHORC ([3]; 0.2500 kg/ha) | SAGPY ([4]; 0.2500 kg/ha) | CYPIR ([5]; 0.0620 kg/ha) | CYPIR ([5]; 0.1250 kg/ha) | CYPIR ([5]; 0.2500 kg/ha) | herbicidal effect rating, MOOVA ([7]; Rate 0.0620 kg/ha) | herbicidal effect rating, MOOVA ([7]; Rate 0.1250 kg/ha) | herbicidal effect rating, MOOVA ([7]; Rate 0.2500 kg/ha) | herbicidal effect rating, ECHORC ([8]; Rate 0.0620 kg/ha) | herbicidal effect rating, ECHORC ([8]; Rate 0.1250 kg/ha) | herbicidal effect rating, ECHORC ([8]; Rate 0.2500 kg/ha) | MOOVA ([12]; 0.0320 kg/ha) | MOOVA ([12]; 0.0620 kg/ha) | MOOVA ([12]; 0.1250 kg/ha) | MOOVA ([12]; 0.2500 kg/ha)
5.0: ORYSAT ([11]; 0.1250 kg/ha)
8.0: ECHORC ([3]; 0.0320 kg/ha) | CYPIR ([5]; 0.0320 kg/ha)
4.0: herbicidal effect rating, CYPIR ([1]; Rate 0.0320 kg/ha) | CYPSE ([2]; 0.0620 kg/ha) | herbicidal effect rating, SAGPY ([6]; Rate 0.2500 kg/ha) | herbicidal effect rating, CYPSE ([9]; Rate 0.2500 kg/ha)
3.5: SAGPY ([4]; 0.0320 kg/ha) | ORYSAT ([11]; 0.0320 kg/ha)
8.5: ECHORC ([3]; 0.1250 kg/ha)
3.0: herbicidal effect rating, ORYSAT (rice tolerance) ([10]; Rate 0.0320 kg/ha) | herbicidal effect rating, ORYSAT (rice tolerance) ([10]; Rate 0.0620 kg/ha) | herbicidal effect rating, ORYSAT (rice tolerance) ([10]; Rate 0.1250 kg/ha)
6.0: herbicidal effect rating, MOOVA ([7]; Rate 0.0320 kg/ha)
6.5: ORYSAT ([11]; 0.2500 kg/ha)
7.0: herbicidal effect rating, CYPIR ([1]; Rate 0.0620 kg/ha) | herbicidal effect rating, ECHORC ([8]; Rate 0.0320 kg/ha) | herbicidal effect rating, ORYSAT (rice tolerance) ([10]; Rate 0.2500 kg/ha)
0.0: CYPSE ([2]; 0.0320 kg/ha) | herbicidal effect rating, SAGPY ([6]; Rate 0.0320 kg/ha) | herbicidal effect rating, SAGPY ([6]; Rate 0.0620 kg/ha) | herbicidal effect rating, SAGPY ([6]; Rate 0.1250 kg/ha) | herbicidal effect rating, CYPSE ([9]; Rate 0.0320 kg/ha) | herbicidal effect rating, CYPSE ([9]; Rate 0.0620 kg/ha) | herbicidal effect rating, CYPSE ([9]; Rate 0.1250 kg/ha)
5.5: SAGPY ([4]; 0.0620 kg/ha) | ORYSAT ([11]; 0.0620 kg/ha)
7.5: CYPSE ([2]; 0.1250 kg/ha) | SAGPY ([4]; 0.1250 kg/ha)

COc1ccc(I)cc1-c1nsc2ccc(-n3c(=O)cc(C(F)(F)F)n(C)c3=O)cc12 [Example 448, 2,4(1H,3H)-Pyrimidinedione, 3-[3-(5-iodo-2-methoxyphenyl)-1,2-benzisothiazol-5-yl]-1-methyl-6-(trifluoromethyl)-]
0.0: SAGPY ([4]; 0.0320 kg/ha) | herbicidal effect rating, SAGPY ([6]; Rate 0.0620 kg/ha) | herbicidal effect rating, SAGPY ([6]; Rate 0.1250 kg/ha) | herbicidal effect rating, SAGPY ([6]; Rate 0.2500 kg/ha) | herbicidal effect rating, MOOVA ([7]; Rate 0.0620 kg/ha) | herbicidal effect rating, ECHORC ([8]; Rate 0.0620 kg/ha) | herbicidal effect rating, CYPSE ([9]; Rate 0.0620 kg/ha) | herbicidal effect rating, CYPSE ([9]; Rate 0.1250 kg/ha) | herbicidal effect rating, CYPSE ([9]; Rate 0.2500 kg/ha) | herbicidal effect rating, ORYSAT (rice tolerance) ([10]; Rate 0.0620 kg/ha)
6.5: CYPSE ([2]; 0.2500 kg/ha)
4.5: CYPSE ([2]; 0.0320 kg/ha) | CYPSE ([2]; 0.0620 kg/ha) | CYPSE ([2]; 0.1250 kg/ha)
8.5: CYPIR ([5]; 0.0320 kg/ha)
7.0: herbicidal effect rating, CYPIR ([1]; Rate 0.1250 kg/ha)
3.5: SAGPY ([4]; 0.2500 kg/ha) | ORYSAT ([11]; 0.0320 kg/ha)
1.5: SAGPY ([4]; 0.0620 kg/ha)
9.0: herbicidal effect rating, CYPIR ([1]; Rate 0.2500 kg/ha) | ECHORC ([3]; 0.0320 kg/ha) | ECHORC ([3]; 0.0620 kg/ha) | ECHORC ([3]; 0.1250 kg/ha) | ECHORC ([3]; 0.2500 kg/ha) | CYPIR ([5]; 0.0620 kg/ha) | CYPIR ([5]; 0.1250 kg/ha) | CYPIR ([5]; 0.2500 kg/ha) | MOOVA ([12]; 0.0320 kg/ha) | MOOVA ([12]; 0.0620 kg/ha) | MOOVA ([12]; 0.1250 kg/ha) | MOOVA ([12]; 0.2500 kg/ha)
4.0: herbicidal effect rating, MOOVA ([7]; Rate 0.2500 kg/ha) | ORYSAT ([11]; 0.0620 kg/ha) | ORYSAT ([11]; 0.1250 kg/ha) | ORYSAT ([11]; 0.2500 kg/ha)
2.5: SAGPY ([4]; 0.1250 kg/ha)
1.0: herbicidal effect rating, MOOVA ([7]; Rate 0.1250 kg/ha) | herbicidal effect rating, ECHORC ([8]; Rate 0.1250 kg/ha) | herbicidal effect rating, ORYSAT (rice tolerance) ([10]; Rate 0.1250 kg/ha)
2.0: herbicidal effect rating, ECHORC ([8]; Rate 0.2500 kg/ha) | herbicidal effect rating, ORYSAT (rice tolerance) ([10]; Rate 0.2500 kg/ha)
